The structures appear in SMILES notation. Some results are limits rather than exact numbers.

The target of assay [1] is Protein kinase C eta type (Homo sapiens, UniProt P24723). Briefly: Inhibition of protein kinase C eta.
Assay [2] can be described thus: Inhibition of protein kinase A.
The species entered for another assay is Homo sapiens. In words: Inhibition of cellular activity by neutrophil assay. It counts as functional.
Assay [3] addresses Protein kinase C gamma type (Homo sapiens, UniProt P05129). In words: Inhibition of protein kinase C gamma.
For assay [4], the target named is T1, Protein kinase C epsilon type (Homo sapiens, UniProt Q02156).
T1 sequence (Q02156 whole entry): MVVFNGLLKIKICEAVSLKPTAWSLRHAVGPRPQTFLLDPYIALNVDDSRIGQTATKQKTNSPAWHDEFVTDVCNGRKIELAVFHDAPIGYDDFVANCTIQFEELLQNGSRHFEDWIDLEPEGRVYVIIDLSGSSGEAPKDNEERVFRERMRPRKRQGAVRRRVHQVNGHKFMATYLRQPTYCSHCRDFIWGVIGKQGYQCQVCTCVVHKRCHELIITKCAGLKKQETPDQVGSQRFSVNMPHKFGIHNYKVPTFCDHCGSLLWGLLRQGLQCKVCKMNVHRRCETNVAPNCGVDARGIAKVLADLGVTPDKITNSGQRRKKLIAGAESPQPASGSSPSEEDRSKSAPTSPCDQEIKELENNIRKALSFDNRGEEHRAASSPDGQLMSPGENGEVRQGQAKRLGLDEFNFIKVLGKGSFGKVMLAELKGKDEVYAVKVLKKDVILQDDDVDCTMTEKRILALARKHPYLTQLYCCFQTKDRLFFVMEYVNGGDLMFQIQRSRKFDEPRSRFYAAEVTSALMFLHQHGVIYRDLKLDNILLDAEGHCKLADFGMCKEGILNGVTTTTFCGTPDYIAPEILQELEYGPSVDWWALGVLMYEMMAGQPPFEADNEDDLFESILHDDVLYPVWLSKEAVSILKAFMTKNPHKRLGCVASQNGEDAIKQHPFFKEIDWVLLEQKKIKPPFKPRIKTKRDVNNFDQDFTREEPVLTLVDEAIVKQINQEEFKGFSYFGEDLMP
In words: Inhibition of protein kinase C epsilon.

For assay [5], the target named is Protein kinase C delta type (Homo sapiens, UniProt Q05655). In words: Inhibition of protein kinase C delta.
Assay [6] addresses Protein kinase C alpha type (Homo sapiens, UniProt P17252). In words: Inhibition of protein kinase C alpha.
Assay [7] concerns the target T2, Protein kinase C beta type (Homo sapiens, UniProt P05771). Briefly: Inhibition of protein kinase C beta I.
Assay [8] has as its target T2, Protein kinase C beta type. Briefly: Inhibition of protein kinase C beta II.

T2 sequence (P05771 whole entry): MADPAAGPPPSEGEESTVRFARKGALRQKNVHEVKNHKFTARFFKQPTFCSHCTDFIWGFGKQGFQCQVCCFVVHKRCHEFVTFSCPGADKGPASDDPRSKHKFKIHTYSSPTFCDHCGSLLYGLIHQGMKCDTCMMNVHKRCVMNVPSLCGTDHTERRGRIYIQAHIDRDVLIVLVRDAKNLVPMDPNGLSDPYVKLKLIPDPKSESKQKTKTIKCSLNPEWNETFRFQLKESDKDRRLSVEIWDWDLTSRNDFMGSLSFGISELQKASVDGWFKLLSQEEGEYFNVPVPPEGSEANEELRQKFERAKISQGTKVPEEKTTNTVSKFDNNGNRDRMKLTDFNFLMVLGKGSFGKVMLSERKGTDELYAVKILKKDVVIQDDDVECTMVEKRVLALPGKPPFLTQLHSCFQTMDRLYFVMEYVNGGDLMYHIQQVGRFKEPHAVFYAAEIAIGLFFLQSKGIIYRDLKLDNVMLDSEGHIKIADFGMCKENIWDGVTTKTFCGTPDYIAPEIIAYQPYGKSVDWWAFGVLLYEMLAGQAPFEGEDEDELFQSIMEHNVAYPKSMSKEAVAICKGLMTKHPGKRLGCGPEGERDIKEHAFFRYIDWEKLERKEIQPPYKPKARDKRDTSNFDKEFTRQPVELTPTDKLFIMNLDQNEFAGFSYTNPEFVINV
Sequence of Protein kinase C eta type (P24723 whole entry): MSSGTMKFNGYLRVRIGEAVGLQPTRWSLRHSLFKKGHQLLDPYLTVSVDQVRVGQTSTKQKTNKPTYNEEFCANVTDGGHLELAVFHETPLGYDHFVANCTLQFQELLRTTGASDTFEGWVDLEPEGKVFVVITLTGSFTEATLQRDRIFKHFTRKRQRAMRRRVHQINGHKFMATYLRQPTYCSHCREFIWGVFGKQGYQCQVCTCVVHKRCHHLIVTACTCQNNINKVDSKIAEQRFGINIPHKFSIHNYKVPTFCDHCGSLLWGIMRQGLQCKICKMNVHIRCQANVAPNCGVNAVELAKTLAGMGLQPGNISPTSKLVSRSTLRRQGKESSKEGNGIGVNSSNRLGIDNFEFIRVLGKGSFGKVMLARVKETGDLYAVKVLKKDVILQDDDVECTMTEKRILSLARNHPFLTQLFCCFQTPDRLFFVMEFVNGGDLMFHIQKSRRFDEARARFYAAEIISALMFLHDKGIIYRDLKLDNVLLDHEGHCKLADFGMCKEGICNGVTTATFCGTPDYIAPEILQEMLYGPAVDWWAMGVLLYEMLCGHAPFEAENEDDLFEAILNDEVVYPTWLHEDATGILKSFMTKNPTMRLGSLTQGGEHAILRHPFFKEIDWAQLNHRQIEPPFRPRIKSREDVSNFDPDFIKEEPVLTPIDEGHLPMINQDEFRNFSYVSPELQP
Sequence of Protein kinase C delta type (Q05655 whole entry): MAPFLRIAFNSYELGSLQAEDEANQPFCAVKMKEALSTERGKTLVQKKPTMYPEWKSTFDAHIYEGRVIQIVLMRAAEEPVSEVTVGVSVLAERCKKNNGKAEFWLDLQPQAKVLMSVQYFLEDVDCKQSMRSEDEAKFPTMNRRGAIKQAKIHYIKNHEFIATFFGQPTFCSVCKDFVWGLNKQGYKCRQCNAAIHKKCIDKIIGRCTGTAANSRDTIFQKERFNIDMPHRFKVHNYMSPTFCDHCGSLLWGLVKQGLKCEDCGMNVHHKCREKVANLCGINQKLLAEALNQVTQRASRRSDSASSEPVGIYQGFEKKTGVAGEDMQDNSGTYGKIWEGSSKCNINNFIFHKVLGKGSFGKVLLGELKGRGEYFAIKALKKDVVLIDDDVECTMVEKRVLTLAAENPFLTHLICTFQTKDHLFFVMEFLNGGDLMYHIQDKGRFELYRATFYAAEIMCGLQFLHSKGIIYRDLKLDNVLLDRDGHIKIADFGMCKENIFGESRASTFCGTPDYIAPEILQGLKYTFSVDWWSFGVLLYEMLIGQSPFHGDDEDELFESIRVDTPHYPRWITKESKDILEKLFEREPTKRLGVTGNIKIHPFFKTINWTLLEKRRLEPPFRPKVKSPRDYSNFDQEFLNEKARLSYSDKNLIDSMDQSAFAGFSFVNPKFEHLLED

What is called IC50 is the concentration that gives 50% inhibition. A higher IC50 goes with a need for much substance. `COC(=O)c1cccc(O)c1C(=O)c1c(O)cc(C(=O)OC2CNCC2Cc2ccc(O)cc2)cc1O` (stereo not drawn) returned an IC50 in assay [1] of 50 nM.
`COC(=O)c1cccc(O)c1C(=O)c1c(O)cc(C(=O)OC2CCCC2Cc2ccc(O)cc2)cc1O` (stereo not drawn): the IC50 in [2] was above 50000 nM.
In the case of `O=C(OC1CCCC1Cc1ccc(O)cc1)c1cc(O)c(C(=O)c2c(O)cccc2C(=O)O)c(O)c1` (stereo in doubt; syn), in the assay listed under Homo sapiens, the midpoint of inhibition, the IC50, lay at 10000 nM.
In the case of `O=C(OC1CNCC1Cc1ccc(O)cc1)c1cc(O)c(C(=O)c2c(O)cccc2C(=O)O)c(O)c1` (stereo not drawn), the IC50 in the assay listed under Homo sapiens (Homo sapiens) is above 10000 nM; in assay [2], 320 nM; in [3], 40 nM; in [4] it was 1800 nM; in [5] it was 5 nM; in [1] it was 20 nM.
On to `O=C(OC1CCCC1Cc1ccc(O)cc1)c1cc(O)c(C(=O)c2c(O)cccc2C(=O)O)c(O)c1` (stereo in doubt; anti), for which the IC50 was 3100 nM in the assay listed under Homo sapiens and above 50000 nM in assay [2].
With `O=C(OC1CCCC1Oc1ccc(O)cc1)c1cc(O)c(C(=O)c2c(O)cccc2C(=O)O)c(O)c1` (stereo not drawn), the IC50 in assay [2] was 50000 nM.
On to `O=C(NC1CNCCCC1OC(=O)c1cc(O)c(C(=O)c2c(O)cccc2C(=O)O)c(O)c1)c1ccc(O)cc1` (single isomer, unassigned; (-)), for which the IC50 in [2] is 40 nM; in assay [3], 10 nM; in assay [6], 30 nM; in assay [7], 10 nM; in [5], 16 nM; in assay [1], 3 nM. The molecule also yielded an IC50 in assay [8] of 10 nM.
As to `O=C(NC1CNCCCC1OC(=O)c1cc(O)c(C(=O)c2c(O)cccc2C(=O)O)c(O)c1)c1ccc(O)cc1` (racemic), the IC50 in the assay filed under Homo sapiens (Homo sapiens) is above 10000 nM; in [2], 60 nM.
Consider `O=C(NC1CCCC1OC(=O)c1cc(O)c(C(=O)c2c(O)cccc2C(=O)O)c(O)c1)c1ccc(O)cc1` (stereo not drawn), for which the IC50 in the assay listed under Homo sapiens (Homo sapiens) was above 10000 nM; in assay [5], 1 nM; in [1] it was 1 nM.
On to `O=C(NC1CNCC1OC(=O)c1cc(O)c(C(=O)c2c(O)cccc2C(=O)O)c(O)c1)c1ccc(O)cc1` (stereo not drawn), for which the IC50 in the assay filed under Homo sapiens (Homo sapiens) was above 10000 nM; in assay [2], 70 nM; in [3] it was 12 nM; in [6] it was 22 nM; in [4] it was 10 nM; in assay [7] it was 10 nM. The IC50 in assay [5] was determined as 5 nM; in [1], 4 nM; in assay [8], 33 nM.

Values taken from ChEMBL document CHEMBL1129127, “Potent and selective PKC inhibitory 5-membered ring analogs of balanol with replacement of the carboxamide moiety” (Bioorg Med Chem Lett, 1996).
